How the values were obtained:
[1] = tested on: S. pneumoniae D39V; test: Bliss interaction score (quartile over a dose matrix) (fitness difference); higher = more antagonism (negative = synergy)
Method in brief: (§1)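 Fitness here means normalised growth, inferred for single drugs from the combination data. Growth was OD595 at entry into stationary phase, divided by the plate's robust no-drug mean and capped at 1. The Bliss score is observed minus expected fitness, with the expectation being the product, and its quartiles span technical, biological and donor/recipient replicates.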

[2] = tested on: S. aureus DSM 20231; test: as above
Method in brief: as §1

[3] = tested on: B. subtilis 168; test: as above
Method in brief: as §1

[4] = tested on: S. aureus Newman; test: as above
Method in brief: as §1

[5] = tested on: S. pneumoniae D39V; test: fitness (endpoint OD595 vs no drug) (fraction); higher = more growth
Method in brief: (§2)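 Growth medium was TSB, LB Lennox or CY, and plates were kept at 37 °C. Inoculation was at OD595 0.01 in 384-well plates, at 30 µl per well or 55 µl for S. pneumoniae. OD595 was monitored every 30 min for 14 h and background-subtracted using the first reading. Fitness is the optical density on entering stationary phase divided by the robust mean of no-drug controls, with values capped at 1.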

[6] = tested on: S. aureus DSM 20231; test: as above
Method in brief: as §2

[7] = tested on: B. subtilis 168; test: as above
Method in brief: as §2

[8] = tested on: S. aureus Newman; test: as above
Method in brief: as §2
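Wherever Bliss interaction score (quartile over a dose matrix) is given: first quartile when negative (synergy) and third quartile when positive (antagonism).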
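Wherever fitness (endpoint OD595 vs no drug) is given: OD595 on entry to stationary phase over no-drug wells; at most 1.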

COc1c(N2C[C@@H]3CCCN[C@@H]3C2)c(F)cc2c(=O)c(C(=O)O)cn(C3CC3)c12 [Moxifloxacin] + COc1ccc(C[C@H](N)C(=O)N[C@H]2[C@@H](O)[C@H](n3cnc4c(N(C)C)ncnc43)O[C@@H]2CO)cc1 [Puromycin]
Conditions	Bliss interaction score
[1]	0.101
[2]	-0.0292
[3]	-0.0157
[4]	0.0443

one replicate
Conditions	fitness
[5], first compound 0.0037 µg/mL, partner 1 µg/mL	0.502
[5], first compound 0.0037 µg/mL, partner 2 µg/mL	0.431
[5], first compound 0.0037 µg/mL, partner 4 µg/mL	0.342
[5], first compound 0.0075 µg/mL, partner 1 µg/mL	0.846
[5], first compound 0.0075 µg/mL, partner 2 µg/mL	0.82
[5], first compound 0.0075 µg/mL, partner 4 µg/mL	0.77
[5], first compound 0.015 µg/mL, partner 1 µg/mL	0.935
[5], first compound 0.015 µg/mL, partner 2 µg/mL	0.798
[5], first compound 0.015 µg/mL, partner 4 µg/mL	0.763
[6], first compound 0.0075 µg/mL, partner 3.12 µg/mL	0.779
[6], first compound 0.0075 µg/mL, partner 6.24 µg/mL	0.642
[6], first compound 0.015 µg/mL, partner 3.12 µg/mL	0.787
[6], first compound 0.015 µg/mL, partner 6.24 µg/mL	0.509
[6], first compound 0.03 µg/mL, partner 3.12 µg/mL	0.754
[6], first compound 0.03 µg/mL, partner 6.24 µg/mL	0.547
[6], first compound 0.06 µg/mL, partner 0.39 µg/mL	0.676
[6], first compound 0.06 µg/mL, partner 0.78 µg/mL	0.7
[6], first compound 0.06 µg/mL, partner 1.56 µg/mL	0.687
[6], first compound 0.12 µg/mL, partner 0.39 µg/mL	0.48
[6], first compound 0.12 µg/mL, partner 0.78 µg/mL	0.482
[6], first compound 0.12 µg/mL, partner 1.56 µg/mL	0.558

fitness
Conditions	partner 0.39 µg/mL	partner 0.78 µg/mL	partner 1 µg/mL	partner 1.56 µg/mL	partner 2 µg/mL	partner 4 µg/mL
[5], first compound 0.005 µg/mL	–	–	≥ 1	–	≥ 1	0.885
[5], first compound 0.01 µg/mL	–	–	≥ 1	–	0.982	0.88
[5], first compound 0.02 µg/mL	–	–	1	–	0.985	0.88
[6], first compound 0.0075 µg/mL	0.885	0.928	–	0.861	–	–
[6], first compound 0.015 µg/mL	0.789	0.846	–	0.802	–	–
[6], first compound 0.03 µg/mL	0.681	0.695	–	0.668	–	–
[7], first compound 0.0312 µg/mL	0.0423	0.0567	–	0.053	–	–
[7], first compound 0.0625 µg/mL	0.0666	0.0602	–	0.0585	–	–
[7], first compound 0.125 µg/mL	0.0451	0.045	–	0.0653	–	–
[7], first compound 2 µg/mL	0.0227	0.028	–	0.0306	–	–
[7], first compound 4 µg/mL	0.021	0.0248	–	0.0303	–	–
[7], first compound 8 µg/mL	0.009	0.0168	–	0.0189	–	–
[8], first compound 0.0075 µg/mL	0.797	0.757	–	0.817	–	–
[8], first compound 0.015 µg/mL	0.673	0.657	–	0.658	–	–
[8], first compound 0.03 µg/mL	0.119	0.161	–	0.282	–	–

Source: the supplement of paper PMC10627819
